Source: US20080194585A1, “Fungicidal Pyrazine Derivatives” (priority 2005, published 2008)
Marks after values point to notes of the source that are not given here.

How the values were obtained:
Plasmopara viticola = experiment: Test D: grape downy mildew, spray after inoculation of grape seedlings; format: in vivo
Description: Upon removal, disease ratings were made. […] A dash (-) indicates no test results.

Phytophthora infestans = experiment: whole plant or invertebrate; format: in vivo
fusarium graminearium = experiment: Test I: wheat head scab, preventive spray on wheat seedlings
Description: (the causal agent of wheat head scab) and incubated in a saturated atmosphere at 20° C. for 72 h, and then moved to a growth chamber at 22° C. for 5 days, after which disease ratings were made.

[1] = tested on: Puccinia recondita f. sp. tritici; experiment: Test K: wheat leaf rust, preventive spray on wheat seedlings; details: for Test K disease control rating: 200 ppm
Botrytis cinerea = experiment: Test E: tomato botrytis, preventive spray on tomato seedlings
Septoria nodorum = experiment: Test H: wheat glum blotch, preventive spray on wheat seedlings
Description: (the causal agent of wheat glum blotch) and incubated in a saturated atmosphere at 20° C. for 48 h, and then moved to a growth chamber at 22° C. for 5 days, after which disease ratings were made.

[2] = tested on: Erysiphe graminis f. sp. tritici; experiment: Test L: wheat powdery mildew, preventive spray on wheat seedlings
Pythium aphanidermatum = experiment: Test A: bluegrass pythium blight, preventive spray on bluegrass seedlings; details: for Test A disease control rating: 200 ppm
Rhizoctonia oryzae = experiment: Test G: turf brown patch, preventive spray on creeping bent grass seedlings
Description: (the causal agent of turf brown patch) and incubated in a saturated atmosphere at 27° C. for 24 h, and then moved to a growth chamber at 27° C. for 5 days, after which disease ratings were made.

[3] = tested on: Colletotrichum orbiculare; experiment: Test B: cucumber Colletotrichum anthracnose, preventive spray on cucumber seedlings
Septoria tritici = experiment: Test J: wheat leaf blotch, preventive spray on wheat seedlings; format: in vivo; details: 40 ppm (marked *); 100 = 100% disease control, 0 = no control
Description: A dash (-) indicates no test results.

[4] = 200 ppm, 100 = 100% disease control, 0 = no control relative to controls
[5] = 100 = 100% disease control, 0 = no control relative to controls
[6] = 40 ppm (marked *), 100 = 100% disease control, 0 = no control

Row | SMILES | Test D disease control rating (Plasmopara viticola; [6]) | Test J disease control rating (Septoria tritici) | Test F disease control rating (Phytophthora infestans; [6]) | Test I disease control rating (fusarium graminearium; [6]) | Test E disease control rating (Botrytis cinerea; [6]) | Test H disease control rating (Septoria nodorum; [6]) | Test L disease control rating [2, 6] | Test G disease control rating (Rhizoctonia oryzae; [6]) | Test B disease control rating [3, 6] | further results
1 | CC(C)=Nn1c(-c2c(F)cccc2F)c(Cl)nc(-n2cccn2)c1=O [Compound 392, 5-Chloro-6-(2,6-difluorophenyl)-1-[(1-methylethylidene)amino]-3-(1H-pyrazol-1-yl)-2(1H)-pyrazinone] |  |  |  |  |  |  |  |  |  | pest or weed control at 200 ppm (Plasmopara viticola; Plasmopara viticola, 168 h, 200 ppm, 100 = 100% disease control, 0 = no control relative to controls, read-out: Test D disease control rating): 0%; pest or weed control at 200 ppm (Phytophthora infestans; Phytophthora infestans, in Solanum lycopersicum, topical, 144 h, read-out: Test F disease control rating): 0%; pest or weed control at 200 ppm (fusarium graminearium; Fusarium, in Triticum aestivum, topical, 192 h, read-out: Test I disease control rating, 200 ppm, 100 = 100% disease control, 0 = no control relative to controls): 0%; pest or weed control at 200 ppm ([1]; Puccinia recondita, in Triticum aestivum, 192 h, read-out: Test K disease control rating): 99%; pest or weed control at 200 ppm (Botrytis cinerea; Botrytis cinerea, in Solanum lycopersicum, topical, 72 h, read-out: Test E disease control rating): 99%; pest or weed control at 200 ppm (Septoria nodorum; Parastagonospora nodorum, in Triticum aestivum, topical, 168 h, read-out: Test H disease control rating, 200 ppm, 100 = 100% disease control, 0 = no control relative to controls): 78%; pest or weed control at 200 ppm ([2]; Blumeria graminis, in Triticum aestivum, 168 h, read-out: Test L disease control rating, 200 ppm, 100 = 100% disease control, 0 = no control relative to controls): 59%; pest or weed control at 200 ppm (Pythium aphanidermatum; Pythium aphanidermatum, 120 h, read-out: Test A disease control rating): 0%; pest or weed control at 200 ppm (Rhizoctonia oryzae; Waitea circinata, in Agrostis stolonifera, topical, 144 h, read-out: Test G disease control rating, 200 ppm, 100 = 100% disease control, 0 = no control relative to controls): 69%; pest or weed control at 200 ppm ([3]; Colletotrichum orbiculare, in Cucumis sativus, 144 h, read-out: Test B disease control rating, 200 ppm, 100 = 100% disease control, 0 = no control relative to controls): 0%
2 | CC(C)Cn1c(-c2c(F)cccc2F)c(Cl)nc(N2CCC=N2)c1=O [compound 4] |  |  |  |  |  |  |  |  |  | Test D disease control rating (Plasmopara viticola; 200 ppm): 12%; Test F disease control rating (Phytophthora infestans; 200 ppm): 0%; Test I disease control rating (fusarium graminearium; 200 ppm): 0%; Test K disease control rating [1]: 98%; Test E disease control rating (Botrytis cinerea; 200 ppm): 96%; Test H disease control rating (Septoria nodorum; 200 ppm): 99%; Test L disease control rating ([2]; 200 ppm): 96%; Test A disease control rating (Pythium aphanidermatum): 0%; Test G disease control rating (Rhizoctonia oryzae; 200 ppm): 99%; Test B disease control rating ([3]; 200 ppm): 0%
3 | CCC(C)c1c(Cl)nc(-n2ccc(C)n2)c(=O)n1CC(C)C (centres unmarked) [compound 390] |  |  |  |  |  |  |  |  |  | Test D disease control rating (Plasmopara viticola; [4]): 8%; Test F disease control rating (Phytophthora infestans; [4]): 0%; Test I disease control rating (fusarium graminearium; [4]): 0%; Test K disease control rating [1, 5]: 100%; Test E disease control rating (Botrytis cinerea; [4]): 98%; Test H disease control rating (Septoria nodorum; [4]): 0%; Test L disease control rating [2, 4]: 100%; Test A disease control rating (Pythium aphanidermatum; [5]): 0%; Test G disease control rating (Rhizoctonia oryzae; [4]): 99%; Test B disease control rating [3, 4]: 0%
4 | CC(C)Cn1c(-c2c(F)cccc2F)c(I)nc(-c2ccccn2)c1=O [compound 401] | 0* % | 32* % |  |  |  |  |  |  |  | Test F disease control rating (Phytophthora infestans; [4]): 0%; Test I disease control rating (fusarium graminearium; [4]): 0%; Test E disease control rating (Botrytis cinerea; [4]): 96%; Test H disease control rating (Septoria nodorum; [4]): 95%; Test L disease control rating [2, 4]: 98%; Test G disease control rating (Rhizoctonia oryzae; [4]): 85%; Test B disease control rating [3, 4]: 0%
5 | O=c1c(-n2cccn2)nc(Cl)c(-c2c(F)cc(F)cc2F)n1-c1ccc(Cl)c(Cl)c1 [compound 402] | 0* % | 99* % | 0* % | 0* % | 99* % | 100* % | 57* % | 0* % | 98* % | 
6 | Cc1ccn(-c2nc(Cl)c(-c3c(F)cc(F)cc3F)n(-c3ccc(Cl)c(Cl)c3)c2=O)n1 [compound 403] | 0* % | 98* % | 0* % | 0* % | 99* % | 100* % | 99* % |  | 99* % | Test G disease control rating (Rhizoctonia oryzae; [4]): 0%
7 | O=c1c(-n2cccn2)nc(Cl)c(-c2c(F)cc(F)cc2F)n1-c1cc(Cl)cc(Cl)c1 [compound 404] | 0* % | 97* % | 0* % | 0* % | 98* % | 100* % | 0* % | 9* % | 0* % | 
8 | Cc1ccn(-c2nc(Cl)c(-c3c(F)cc(F)cc3F)n(-c3cc(Cl)cc(Cl)c3)c2=O)n1 [compound 405] | 0* % | 99* % | 0* % | 0* % | 99* % | 98* % | 0* % | 17* % | 36* % | 
9 | O=c1c(-n2cccn2)nc(Cl)c(-c2c(F)cc(F)cc2F)n1-c1ccc(F)c(Cl)c1 [compound 406] | 0* % | 100* % | 0* % | 0* % | 99* % | 99* % | 0* % | 50* % | 84* % | 
10 | Cc1ccn(-c2nc(Cl)c(-c3c(F)cc(F)cc3F)n(-c3ccc(F)c(Cl)c3)c2=O)n1 [compound 407] | 0* % | 99* % | 0* % | 0* % | 99* % | 99* % | 0* % | 9* % | 32* % | 
11 | O=c1c(-n2cccn2)nc(Cl)c(-c2c(F)cc(F)cc2F)n1-c1ccc(F)cc1 [compound 408] | 0* % | 99* % | 0* % | 0* % | 99* % | 100* % | 99* % | 91* % | 98* % | 
12 | Cc1ccn(-c2nc(Cl)c(-c3c(F)cc(F)cc3F)n(-c3ccc(F)cc3)c2=O)n1 [compound 409] | 0* % | 99* % | 0* % | 0* % | 99* % | 99* % | 60* % | 24* % | 98* % | 
13 | O=c1c(-n2cccn2)nc(Cl)c(-c2c(F)cc(F)cc2F)n1-c1cc(F)c(F)c(F)c1 [compound 410] | 0* % | 98* % | 0* % | 0* % | 99* % | 99* % | 0* % | 17* % | 97* % | 
14 | Cc1ccn(-c2nc(Cl)c(-c3c(F)cc(F)cc3F)n(-c3cc(F)c(F)c(F)c3)c2=O)n1 [compound 411] | 0* % | 98* % | 0* % | 0* % | 99* % | 99* % | 87* % | 16* % | 98* % | 
15 | CCn1c(-c2ccc(F)cc2Cl)c(Cl)nc(C(N)=O)c1=O [compound 412] |  | 0* % |  |  | 29* % | 0* % | 0* % | 0* % | 0* % | Test D disease control rating (Plasmopara viticola; [4]): 16%; Test F disease control rating (Phytophthora infestans; [4]): 9%; Test I disease control rating (fusarium graminearium; [4]): 0%
16 | O=c1c(-n2cccn2)nc(Cl)c(-c2c(F)cc(F)cc2F)n1C1CCCCC1 [compound 418] |  |  |  |  |  |  |  |  |  | Test D disease control rating (Plasmopara viticola; [4]): 47%; Test F disease control rating (Phytophthora infestans; [4]): 0%; Test I disease control rating (fusarium graminearium; [4]): 0%; Test K disease control rating [1, 5]: 99%; Test E disease control rating (Botrytis cinerea; [4]): 99%; Test H disease control rating (Septoria nodorum; [4]): 100%; Test L disease control rating [2, 4]: 100%; Test A disease control rating (Pythium aphanidermatum; [5]): 0%; Test G disease control rating (Rhizoctonia oryzae; [4]): 99%; Test B disease control rating [3, 4]: 99%
17 | CCC(C)Cn1c(-c2ccc(OC)cc2F)c(Cl)nc(-n2cccn2)c1=O (centres unmarked) [compound 421] |  |  |  |  |  |  |  |  |  | Test D disease control rating (Plasmopara viticola; [4]): 3%; Test F disease control rating (Phytophthora infestans; [4]): 0%; Test I disease control rating (fusarium graminearium; [4]): 0%; Test K disease control rating [1, 5]: 100%; Test E disease control rating (Botrytis cinerea; [4]): 99%; Test H disease control rating (Septoria nodorum; [4]): 100%; Test L disease control rating [2, 4]: 94%; Test A disease control rating (Pythium aphanidermatum; [5]): 0%; Test G disease control rating (Rhizoctonia oryzae; [4]): 34%; Test B disease control rating [3, 4]: 99%
